Measurements reported in ChEMBL document CHEMBL3351221, “Synthetic derivatives of aromatic abietane diterpenoids and their biological activities” (Eur J Med Chem, 2014).
In brackets after ≈: the same amount, converted by molar mass.

Key:
[1] = Cytotoxicity against human Hey-1B cells; type: functional, cell-based
[2] = Cytotoxicity against human PC3 cells; type: functional, cell-based; conditions: PC-3
A549 = assay: Cytotoxicity against human A549 cells; type: functional, cell-based
C6 = assay: Cytotoxicity against rat C6 cells; type: functional, cell-based
MCF7 = assay: Cytotoxicity against human MCF7 cells; type: functional, cell-based
SMMC-7721 = assay: Cytotoxicity against human SMMC7721 cells; type: functional, cell-based
Mus musculus [3] = assay: Gastroprotective activity in mouse assessed as reduction in HCl/EtOH-induced gastric lesions at 20 mg/kg; type: functional; conditions: Stomach
MRC5 = assay: Cytotoxicity against human MRC5 cells; type: cell-based
AGS = assay: Cytotoxicity against human AGS cells; type: cell-based
Enterococcus = assay: Antimicrobial activity against Vancomycin-resistant Enterococcus; type: functional
Staphylococcus aureus = assay: Antimicrobial activity against methicillin-resistant Staphylococcus aureus; type: functional
Mus musculus [4] = assay: Gastroprotective activity in mouse assessed as reduction in HCl/EtOH-induced gastric lesions at 10 mg/kg; type: functional; conditions: Stomach

Row | SMILES | inhibition in vivo at 20 mg/kg (Mus musculus [3]) [%] | IC50 (MRC5) [µM] | IC50 (AGS) [µM] | other results
1 | CC(C)c1cc2c(cc1[N+](=O)[O-])[C@@]1(C)CCC[C@@](C)(CNC(=O)c3ccccc3)[C@@H]1CC2 | – | – | – | IC50 [1]: 11.3 mg/L (≈ 26 µM); IC50 [2]: 5.7 mg/L (≈ 13.1 µM)
2 | CC(C)c1cc2c(cc1[N+](=O)[O-])[C@@]1(C)CCC[C@@](C)(CNC(=O)c3ccccc3Cl)[C@@H]1CC2 | – | – | – | IC50 [1]: 11.3 mg/L (≈ 24.1 µM); IC50 [2]: 5.7 mg/L (≈ 12.2 µM)
3 | CC(C)c1cc2c(cc1[N+](=O)[O-])[C@@]1(C)CCC[C@@](C)(CNC(=O)c3ccc([N+](=O)[O-])cc3)[C@@H]1CC2 | – | – | – | IC50 [1]: 11.3 mg/L (≈ 23.6 µM); IC50 [2]: 5.7 mg/L (≈ 11.9 µM)
4 | COc1ccc(/C=N/C[C@]2(C)CCC[C@]3(C)c4ccc(C(C)C)cc4CC[C@@H]23)cc1 | – | – | – | IC50 (A549): 0.75 µM; IC50 (C6): 0.81 µM; IC50 (MCF7): 10.7 µM; IC50 (SMMC-7721): 6.65 µM
5 | COc1ccc(/C=N/C[C@]2(C)CCC[C@]3(C)c4ccc(C(C)C)cc4CC[C@@H]23)c(O)c1 | – | – | – | IC50 (A549): 0.75 µM; IC50 (C6): 0.81 µM; IC50 (MCF7): 10.7 µM; IC50 (SMMC-7721): 6.65 µM
6 | CC(C)c1ccc2c(c1)CC[C@H]1[C@](C)(C/N=C/c3ccc(C(F)(F)F)cc3)CCC[C@]21C | – | – | – | IC50 (A549): 0.75 µM; IC50 (C6): 0.81 µM; IC50 (MCF7): 10.7 µM; IC50 (SMMC-7721): 6.65 µM
7 | CC(C)c1ccc2c(c1)CC[C@H]1[C@](C)(C/N=C/c3cccc(F)c3)CCC[C@]21C | – | – | – | IC50 (A549): 0.75 µM; IC50 (C6): 0.81 µM; IC50 (MCF7): 10.7 µM; IC50 (SMMC-7721): 6.65 µM
8 | CC(C)c1ccc2c(c1)CC[C@H]1C(C)(C)CCC[C@]21C | 69 | – | – | –
9 | CC(Cl)C(=O)Oc1cc2c(cc1C(C)C)CC[C@H]1C(C)(C)CCC[C@]21C (stereo partly specified) | 76 | 19 | 18 | –
10 | C=CC(=O)Oc1cc2c(cc1C(C)C)CC[C@H]1C(C)(C)CCC[C@]21C | 67 | 19 | 18 | –
11 | CC(=O)OC[C@H]1O[C@@H](Oc2cc3c(cc2C(C)C)CC[C@H]2C(C)(C)CCC[C@]32C)[C@H](OC(C)=O)[C@@H](OC(C)=O)[C@@H]1OC(C)=O | 72 | > 1000 | > 1000 | –
12 | CC(C)c1cc2c(cc1O[C@@H]1O[C@H](CO)[C@H](O)[C@H](O)[C@H]1O)[C@@]1(C)CCCC(C)(C)[C@@H]1CC2 | 61 | 19 | 18 | –
13 | CC(C)c1cc2c(cc1OC=O)[C@@]1(C)CCCC(C)(C)[C@@H]1CC2 | – | 19 | 18 | –
14 | CC(=O)Oc1cc2c(cc1C(C)C)CC[C@H]1C(C)(C)CCC[C@]21C | – | 19 | 18 | –
15 | CCC(=O)Oc1cc2c(cc1C(C)C)CC[C@H]1C(C)(C)CCC[C@]21C | – | 19 | 18 | –
16 | CC(C)c1cc2c(cc1O[C@@H]1O[C@H](CO)[C@@H](O)[C@H](O)[C@H]1O)[C@@]1(C)CCCC(C)(C)[C@@H]1CC2 | – | 19 | 18 | –

Row | SMILES | inhibition in vivo at 20 mg/kg (Mus musculus [3]) [%] | IC50 (MRC5) [µM] | IC50 (AGS) [µM] | other results
17 | CC(C)c1cc2c(cc1OC(=O)c1cccnc1)[C@@]1(C)CCCC(C)(C)[C@@H]1CC2 | 71 | > 1000 | 22 | –
18 | CCCCCCCCCCCCCCCC(=O)Oc1cc2c(cc1C(C)C)CC[C@H]1C(C)(C)CCC[C@]21C | 50 | > 1000 | – | –
19 | CCCCCCCC/C=C/CCCCCCCC(=O)Oc1cc2c(cc1C(C)C)CC[C@H]1C(C)(C)CCC[C@]21C | 50 | > 1000 | – | –
20 | Cc1c(C(=O)Oc2cc3c(cc2C(C)C)CC[C@H]2C(C)(C)CCC[C@]32C)oc2ccccc12 | 50 | > 1000 | – | –
21 | CC(C)c1cc2c(cc1OC(=O)Cc1c[nH]c3ccccc13)[C@@]1(C)CCCC(C)(C)[C@@H]1CC2 | 50 | > 1000 | 12 | –
22 | CC(C)c1cc2c(cc1OC(=O)CCCc1c[nH]c3ccccc13)[C@@]1(C)CCCC(C)(C)[C@@H]1CC2 | 50 | > 1000 | – | –
23 | CC(C)c1cc2c(cc1OC(=O)c1cc([N+](=O)[O-])cc([N+](=O)[O-])c1)[C@@]1(C)CCCC(C)(C)[C@@H]1CC2 | – | > 1000 | 29 | –
24 | CC(C)c1cc2c(cc1O)[C@@]1(C)CCCC(C)(C)[C@@H]1C(=O)C2 | – | – | – | MIC (Enterococcus): 4 mg/L (≈ 13.3 µM); MIC (Staphylococcus aureus): 4 mg/L (≈ 13.3 µM)
25 | COC(=O)[C@]12CCCC(C)(C)[C@@H]1CCc1cc(C(C)C)c(OC(=O)c3ccccc3)c(OC(=O)c3ccccc3)c12 | – | – | – | inhibition in vivo at 10 mg/kg (Mus musculus [4]): 73%
26 | CCCOC(=O)[C@]12CCCC(C)(C)[C@@H]1CCc1cc(C(C)C)c(OC)c(OC(=O)CCC)c12 | – | – | – | inhibition in vivo at 10 mg/kg (Mus musculus [4]): 73%
27 | COC(=O)[C@]12CCCC(C)(C)[C@@H]1CCc1cc(C(C)C)c(OC(=O)Cc3cc4ccccc4[nH]3)c(OC(=O)Cc3cc4ccccc4[nH]3)c12 | – | – | – | inhibition in vivo at 10 mg/kg (Mus musculus [4]): 73%
28 | CC(C)c1cc2c(c(O)c1O)[C@@]1(C)CCCC(C)(C)[C@@H]1CC2=O [DEMETHYLCRYPTOJAPONOL] | – | – | – | MIC (Enterococcus): 4 mg/L (≈ 12.6 µM); MIC (Staphylococcus aureus): 4 mg/L (≈ 12.6 µM)
29 | CC(C)c1cc2c(cc1O)[C@@]1(C)CCCC(C)(C)[C@@H]1CC2 [FERRUGINOL] | – | 19 | 18 | –
30 | Cc1c(OCC(F)(F)F)ccnc1C[S+]([O-])c1nc2ccccc2[nH]1 (stereo unspecified) [LANSOPRAZOLE] | – | – | – | inhibition in vivo at 10 mg/kg (Mus musculus [4]): 64%
31 | CC(C)c1cc2c(c(O)c1O)[C@@]1(C)CCCC(C)(C)C1=CC2=O [SALVINOLONE] | – | – | – | MIC (Enterococcus): 4 mg/L (≈ 12.7 µM); MIC (Staphylococcus aureus): 4 mg/L (≈ 12.7 µM)
